# Experimental data reported in ChEMBL document CHEMBL5465560, “Selectivity Literature for EUbOPEN Chemogenomic Library” (2024).
# Key:
# [1] = target: Protein kinase C eta type (Homo sapiens) (UniProt P24723); test: Selectivity interaction (KinomeScan (DiscoverX)) EUB0000595a PRKCH; settings: at 10 µM
# [2] = target: T1, Mitogen-activated protein kinase kinase kinase 7 (Homo sapiens) (UniProt O43318); test: Selectivity interaction (KinomeScan (DiscoverX)) EUB0000045b MAP3K7
# T1 sequence (whole entry): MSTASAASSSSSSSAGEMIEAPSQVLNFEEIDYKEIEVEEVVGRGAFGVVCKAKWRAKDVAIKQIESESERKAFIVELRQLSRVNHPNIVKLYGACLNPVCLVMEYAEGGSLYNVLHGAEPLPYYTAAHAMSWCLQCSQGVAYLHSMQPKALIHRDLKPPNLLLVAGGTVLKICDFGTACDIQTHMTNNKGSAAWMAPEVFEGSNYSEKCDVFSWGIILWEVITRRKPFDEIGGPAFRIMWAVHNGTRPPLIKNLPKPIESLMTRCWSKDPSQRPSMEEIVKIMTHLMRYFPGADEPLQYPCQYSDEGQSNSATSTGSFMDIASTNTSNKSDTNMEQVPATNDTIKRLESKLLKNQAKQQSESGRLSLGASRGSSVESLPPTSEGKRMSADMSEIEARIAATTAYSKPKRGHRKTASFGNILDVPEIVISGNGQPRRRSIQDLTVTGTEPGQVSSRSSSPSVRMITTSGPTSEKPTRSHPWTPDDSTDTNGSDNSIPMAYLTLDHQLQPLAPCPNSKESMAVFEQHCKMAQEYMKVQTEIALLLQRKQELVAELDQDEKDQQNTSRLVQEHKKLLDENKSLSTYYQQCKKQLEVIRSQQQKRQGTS
# [3] = target: Mitogen-activated protein kinase 10 (Homo sapiens, UniProt P53779); test: Selectivity interaction (LanthaScreen Eu Kinase Binding Assay) EUB0001632a MAPK10; settings: at 10 µM
# [4] = target: T2, Sphingosine kinase 2 (Homo sapiens) (UniProt Q9NRA0); test: Selectivity interaction (Adapta Assay) EUB0001632a SPHK2; settings: at 10 µM
# T2 sequence (whole entry): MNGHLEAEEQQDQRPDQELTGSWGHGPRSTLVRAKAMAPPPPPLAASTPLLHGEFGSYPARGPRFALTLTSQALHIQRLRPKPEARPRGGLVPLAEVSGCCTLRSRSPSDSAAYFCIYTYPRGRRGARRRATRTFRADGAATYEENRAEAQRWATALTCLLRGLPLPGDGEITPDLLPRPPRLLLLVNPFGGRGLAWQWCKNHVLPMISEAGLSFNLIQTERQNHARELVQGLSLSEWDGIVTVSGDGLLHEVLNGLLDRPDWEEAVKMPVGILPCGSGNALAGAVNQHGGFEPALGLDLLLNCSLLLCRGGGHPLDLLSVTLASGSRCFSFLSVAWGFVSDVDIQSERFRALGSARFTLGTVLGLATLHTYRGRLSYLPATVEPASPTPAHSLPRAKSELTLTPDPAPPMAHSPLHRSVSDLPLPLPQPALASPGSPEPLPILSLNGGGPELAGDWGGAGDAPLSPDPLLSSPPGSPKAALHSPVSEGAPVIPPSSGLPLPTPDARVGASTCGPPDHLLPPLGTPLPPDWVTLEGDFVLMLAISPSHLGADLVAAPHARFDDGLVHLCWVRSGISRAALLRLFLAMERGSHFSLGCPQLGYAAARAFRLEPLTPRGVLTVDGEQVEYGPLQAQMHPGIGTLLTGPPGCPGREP
# [5] = target: Tyrosine-protein kinase ABL2 (Homo sapiens, UniProt P42684); test: Selectivity interaction (Upstate Kinase Profiler service (Millipore)) EUB0000056c ABL2; settings: at 1 µM
# [6] = target: cAMP-dependent protein kinase catalytic subunit alpha (Homo sapiens, UniProt P17612); test: Selectivity interaction (ProQinase) EUB0000171b PRKACA
# [7] = target: Tyrosine-protein kinase FRK (Homo sapiens) (UniProt P42685); test: Selectivity interaction (ProQinase) EUB0000171b FRK
# [8] = target: T3, Serine/threonine-protein kinase Nek3 (Homo sapiens) (UniProt P51956); test: Selectivity interaction (ActivX KiNativ screen (kinase selectivity in THP-1 cell lysates)) EUB0000639a NEK3; type: subcellular; settings: lysate
# T3 sequence (whole entry): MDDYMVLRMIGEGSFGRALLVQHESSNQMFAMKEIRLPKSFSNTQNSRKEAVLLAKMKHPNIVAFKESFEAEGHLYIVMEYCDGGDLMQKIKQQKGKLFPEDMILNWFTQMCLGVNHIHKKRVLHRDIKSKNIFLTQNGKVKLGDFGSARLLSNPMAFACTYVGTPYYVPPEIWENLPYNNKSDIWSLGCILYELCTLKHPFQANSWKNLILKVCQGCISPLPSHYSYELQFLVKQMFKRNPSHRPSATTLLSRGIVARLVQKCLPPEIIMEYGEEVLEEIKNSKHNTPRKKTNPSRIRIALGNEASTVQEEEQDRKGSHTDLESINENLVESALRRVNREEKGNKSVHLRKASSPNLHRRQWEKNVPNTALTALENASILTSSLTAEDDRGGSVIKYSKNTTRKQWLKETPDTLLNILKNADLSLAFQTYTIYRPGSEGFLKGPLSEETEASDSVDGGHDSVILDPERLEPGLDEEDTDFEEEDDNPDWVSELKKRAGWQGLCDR
# Tyrosine-protein kinase FRK (Homo sapiens), sequence (P42685 whole entry): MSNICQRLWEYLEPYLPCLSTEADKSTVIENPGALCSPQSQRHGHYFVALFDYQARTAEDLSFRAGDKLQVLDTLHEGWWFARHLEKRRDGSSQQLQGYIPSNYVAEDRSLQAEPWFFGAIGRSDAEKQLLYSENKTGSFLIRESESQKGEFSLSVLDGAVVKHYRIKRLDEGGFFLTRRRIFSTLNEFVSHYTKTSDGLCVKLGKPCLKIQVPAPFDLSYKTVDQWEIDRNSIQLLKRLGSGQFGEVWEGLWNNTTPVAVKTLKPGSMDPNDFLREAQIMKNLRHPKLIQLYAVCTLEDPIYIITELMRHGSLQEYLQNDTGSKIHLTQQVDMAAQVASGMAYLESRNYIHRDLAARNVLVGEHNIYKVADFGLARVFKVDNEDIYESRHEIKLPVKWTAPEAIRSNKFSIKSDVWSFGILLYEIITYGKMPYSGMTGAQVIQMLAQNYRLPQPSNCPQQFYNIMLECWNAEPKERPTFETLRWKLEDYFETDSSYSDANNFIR
# Protein kinase C eta type (Homo sapiens), sequence (P24723 whole entry): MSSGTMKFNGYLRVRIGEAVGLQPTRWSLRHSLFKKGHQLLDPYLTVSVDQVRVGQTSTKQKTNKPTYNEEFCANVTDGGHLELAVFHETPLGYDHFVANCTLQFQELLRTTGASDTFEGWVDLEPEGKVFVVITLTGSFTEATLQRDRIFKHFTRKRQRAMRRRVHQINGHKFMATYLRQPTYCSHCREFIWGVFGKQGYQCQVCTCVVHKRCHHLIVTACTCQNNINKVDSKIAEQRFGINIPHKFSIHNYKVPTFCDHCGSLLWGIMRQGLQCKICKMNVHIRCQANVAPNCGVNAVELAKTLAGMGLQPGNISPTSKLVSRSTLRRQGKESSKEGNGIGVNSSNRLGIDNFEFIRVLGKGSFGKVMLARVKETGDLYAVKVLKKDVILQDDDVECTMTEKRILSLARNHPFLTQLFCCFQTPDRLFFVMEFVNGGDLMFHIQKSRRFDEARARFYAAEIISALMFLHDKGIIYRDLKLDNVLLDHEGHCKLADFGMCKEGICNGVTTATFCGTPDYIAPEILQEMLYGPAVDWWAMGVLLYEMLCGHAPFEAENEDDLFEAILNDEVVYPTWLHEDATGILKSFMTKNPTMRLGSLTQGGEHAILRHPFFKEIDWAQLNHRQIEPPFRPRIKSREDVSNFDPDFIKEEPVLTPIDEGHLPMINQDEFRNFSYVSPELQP
# Tyrosine-protein kinase ABL2, sequence (P42684 whole entry): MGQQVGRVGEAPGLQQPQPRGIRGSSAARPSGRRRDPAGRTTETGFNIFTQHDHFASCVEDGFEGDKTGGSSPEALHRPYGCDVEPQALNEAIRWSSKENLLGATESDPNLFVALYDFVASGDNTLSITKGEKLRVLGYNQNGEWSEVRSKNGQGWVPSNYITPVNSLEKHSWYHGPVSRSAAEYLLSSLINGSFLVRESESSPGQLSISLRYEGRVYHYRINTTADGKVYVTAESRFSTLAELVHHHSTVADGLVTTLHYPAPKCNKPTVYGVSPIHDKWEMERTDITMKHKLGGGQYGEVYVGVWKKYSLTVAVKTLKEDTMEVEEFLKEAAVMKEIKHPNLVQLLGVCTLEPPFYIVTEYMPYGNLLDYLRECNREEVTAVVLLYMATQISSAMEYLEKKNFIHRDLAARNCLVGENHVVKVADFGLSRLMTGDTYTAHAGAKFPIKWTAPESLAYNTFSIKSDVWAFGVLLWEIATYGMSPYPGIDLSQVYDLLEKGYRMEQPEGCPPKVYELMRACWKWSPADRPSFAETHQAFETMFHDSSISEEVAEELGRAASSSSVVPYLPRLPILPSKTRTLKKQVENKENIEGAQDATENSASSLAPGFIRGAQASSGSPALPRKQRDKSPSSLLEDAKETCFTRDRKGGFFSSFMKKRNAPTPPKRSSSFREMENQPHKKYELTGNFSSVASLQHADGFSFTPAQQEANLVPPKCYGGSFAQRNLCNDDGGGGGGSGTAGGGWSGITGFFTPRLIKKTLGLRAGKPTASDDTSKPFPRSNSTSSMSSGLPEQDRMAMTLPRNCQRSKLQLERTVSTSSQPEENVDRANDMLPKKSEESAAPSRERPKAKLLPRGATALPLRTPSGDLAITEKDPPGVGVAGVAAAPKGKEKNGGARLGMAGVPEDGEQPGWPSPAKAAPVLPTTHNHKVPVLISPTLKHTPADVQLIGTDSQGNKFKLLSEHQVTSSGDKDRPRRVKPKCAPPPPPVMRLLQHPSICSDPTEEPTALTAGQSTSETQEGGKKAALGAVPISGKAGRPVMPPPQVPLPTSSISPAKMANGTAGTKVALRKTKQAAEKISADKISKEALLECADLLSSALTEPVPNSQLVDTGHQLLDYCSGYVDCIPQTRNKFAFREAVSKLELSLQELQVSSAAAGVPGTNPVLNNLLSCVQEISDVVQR
# Mitogen-activated protein kinase 10, sequence (P53779 whole entry): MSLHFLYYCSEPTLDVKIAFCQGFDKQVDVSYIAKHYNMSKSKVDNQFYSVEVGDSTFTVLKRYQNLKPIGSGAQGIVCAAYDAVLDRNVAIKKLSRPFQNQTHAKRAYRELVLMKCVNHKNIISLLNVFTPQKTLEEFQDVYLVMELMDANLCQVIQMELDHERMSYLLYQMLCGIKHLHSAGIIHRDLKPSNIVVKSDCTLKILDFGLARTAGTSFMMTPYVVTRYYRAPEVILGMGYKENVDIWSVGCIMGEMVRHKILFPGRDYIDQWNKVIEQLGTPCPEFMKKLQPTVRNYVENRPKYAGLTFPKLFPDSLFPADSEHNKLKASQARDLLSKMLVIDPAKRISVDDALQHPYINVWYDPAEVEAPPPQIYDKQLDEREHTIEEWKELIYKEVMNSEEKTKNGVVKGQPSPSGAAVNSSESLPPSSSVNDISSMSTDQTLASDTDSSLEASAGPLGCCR
smiles,measurement,setting,value
COCC(=O)NC/C=C/c1ccc2ncnc(Nc3ccc(Oc4ccc(C)nc4)c(C)c3)c2c1 [CP-724714],% of control,[1],100%
C=CC(=O)Nc1cc(-n2c(=O)ccc3cnc4ccc(-c5ccc(NS(C)(=O)=O)cc5)cc4c32)ccc1C,% of control,[2]; at 1 µM,83%
same,% of control,[2]; at 10 µM,78%
Cn1cc(-n2cnc3c(NCc4nc5cc(Cl)c(Cl)cc5[nH]4)nc(N4CCOCC4)nc32)cn1,% of inhibition,[3],-2.22%
same,% of inhibition,[4],67.7%
Cc1ccc(-c2ccc3c(ccc4sc5c(c43)NC[C@@H](C)NC5=O)n2)cn1,% of inhibition,[5],13%
C=CC(=O)Nc1cccc(C(=O)Nc2ccc(Nc3cc(-c4[nH]c(SC)nc4C)ccn3)cc2)c1,% of control,[6]; at 1 µM,84%
same,% of control,[6]; at 5 µM,66%
same,% of control,[7]; at 1 µM,99%
same,% of control,[7]; at 5 µM,75%
CC[C@@H]1[C@H](F)C(=O)N[C@@H]1COc1nccc2cc(C(N)=O)c(OC)cc12 [ZIMLOVISERTIB],% of inhibition,[8]; at 0.01 µM,-5.8%
same,% of inhibition,[8]; at 0.04 µM,-2.4%
same,% of inhibition,[8]; at 0.2 µM,6.9%
same,% of inhibition,[8]; at 1 µM,-1.1%
same,% of inhibition,[8]; at 5 µM,-11.5%
